According to ChEMBL document CHEMBL1141499, “Imidazopyridines: a novel class of hNav1.7 channel blockers” (Bioorg Med Chem Lett, 2008):

Assays:
[1] = Plasma clearance in Sprague-Dawley rat at 1.0 mg/kg, iv or 3.0 mg/kg, po; format: ADME, organism-based
[2] = Bioavailability in Sprague-Dawley rat at 3.0 mg/kg, po; format: ADME, organism-based; settings: in vivo

Compound | clearance [1] [mL/min/kg] | bioavailability [2] [%]
CC(C)(C)OC(=O)N[C@H](Cc1ccccc1C(F)(F)F)C(=O)NCc1nc2cccnc2n1CC1CC1 | 114 | 25
CC(C)(C)OC(=O)N[C@H](Cc1ccccc1C(F)(F)F)C(=O)NCc1nc2cccnc2n1CC(F)(F)C(F)(F)F | 87 | 10
CC(C)(C)Cn1c(CNC(=O)[C@@H](Cc2ccccc2C(F)(F)F)NC(=O)OC(C)(C)C)nc2cccnc21 | 64 | 17
CC(C)(C)OC(=O)N[C@H](Cc1ccccc1C(F)(F)F)C(=O)NCc1nc2cccnc2n1CC(F)(F)F | 113 | 7
CC(C)(C)OC(=O)N[C@H](Cc1ccccc1C(F)(F)F)C(=O)NCc1nc2cccnc2n1C(C)(C)C | 36 | 31

Results, then the compound that gave them:

clearance [1] [mL/min/kg] | bioavailability [2] [%] | Compound
9.3 | 78 | O=C(NCc1nc2cccnc2n1C1(c2ccccc2)CC1)[C@@H](Cc1ccccc1Cl)NC(=O)C1(C(F)(F)F)CC1
22 | 57 | C[C@H](c1ccccc1)n1c(CNC(=O)[C@@H](Cc2ccccc2C(F)(F)F)NC(=O)OC(C)(C)C)nc2cccnc21
6.6 | 85 | O=C(NCc1nc2cccnc2n1C1(c2ccccc2)CC1)[C@@H](Cc1c(F)ccc(F)c1F)NC(=O)C1(C(F)(F)F)CC1
15 | 41 | CC(C)(C)OC(=O)N[C@H](Cc1ccccc1C(F)(F)F)C(=O)NCc1nc2cccnc2n1Cc1ccccc1
3 | 44 | CC(C)(C)OC(=O)N[C@H](Cc1ccccc1C(F)(F)F)C(=O)NCc1nc2cccnc2n1C1(c2ccccc2)CC1
7.5 | 47 | CC(C)(C)OC(=O)N[C@H](Cc1ccccc1F)C(=O)NCc1nc2cccnc2n1C1(c2ccccc2)CC1
4.2 | 54 | O=C(NCc1nc2cccnc2n1C1(c2ccccc2)CC1)[C@@H](Cc1c(F)cccc1F)NC(=O)C1(C(F)(F)F)CC1
21 | 36 | C[C@@H](c1ccccc1)n1c(CNC(=O)[C@@H](Cc2ccccc2C(F)(F)F)NC(=O)OC(C)(C)C)nc2cccnc21
